Measured values published in ChEMBL document CHEMBL1159210, “The arenarans, sesquiterpene ethers from the marine sponge Dysidea arenaria” (J Nat Prod, 1995).
In brackets after ≈: the same amount, converted by molar mass. Activity calls are given as the source filed them. The rule behind the calls is not given here.

Experiments:
Assay type in all cases: functional, cell-based
[1] = tested on: A549; experiment: Cytotoxicity against human A549 cells
[2] = tested on: HT-29; experiment: Cytotoxicity against human HT-29 cells
[3] = tested on: HCT-29; experiment: Cytotoxicity against human HCT29 cells
[4] = tested on: P388; experiment: Cytotoxicity against mouse P388 cells

Structure (SMILES) | Activity [1] | Activity [2] | Activity [3] | Activity [4] | IC50 [1] [µg/mL] | IC50 [2] [µg/mL] | IC50 [3] [µg/mL] | IC50 [4] [µg/mL]
CC1(C)CCC[C@]2(C)OC[C@H]3O[C@@]3(C)CC[C@@H]12 | inactive | inactive | inactive | inactive |  |  |  | 
C/C1=C/CO[C@@]2(C)CCCC(C)(C)[C@@H]2CC1 [ARENARAN A] |  |  |  |  | 9.51 (≈ 42.8 µM) | 9.11 (≈ 41 µM) | 5.28 (≈ 23.7 µM) | 3.17 (≈ 14.3 µM)
